Results taken from US6664224B2, “Quaternary ammonium salt and process for the preparation thereof” (priority 2000, dated 2003).

Columns and labels:
[1] = test system: Escherichia coli K12 W 3110; test: MIC by agar plate dilution method; format: cell-based; details: E. coli, 37° C. 24 hours
Protocol: (§1) MIC value was determined by an agar plate dilution method according to the Law of Japanese Society of Chemotherapy. In some detail, a bacteria solution in stationary state which had been adjusted with a nutrient broth such that the concentration of bacterial suspension reached 10^6 cell/ml was added to agar culture media containing chemical solutions having concentrations which vary in two stages where it was then allowed to stand at a temperature of 37° C. for 24 hours for culture. The bacteria solution was then examined to see if the proliferation of bacteria occurred. Thus, MIC was determined.
(§2) The following three kinds of bacteria were used as sample bacteria:
Escherichia coliK12 W 3110 (E. coli);

[2] = test system: Pseudomonas aeruginosa ATCC27583; test: MIC by agar plate dilution method; format: cell-based; details: P. aeruginosa, 37° C. 24 hours
Protocol: as §1, §2
Pseudomonas aeruginosa ATCC27583 (P. auruginosa); and […]

[3] = test system: Staphylococcus aureus IFO 12732; test: MIC by agar plate dilution method; format: cell-based; details: S. aureus, 37° C. 24 hours
Protocol: as §1, §2
Staphylococcus aureus IFO 12732 (S. aureus)

[4] = test system: Aspergillus niger IFO 6431; test: Minimum development inhibiting concentration (MIC) against fungi; format: cell-based; details: A. niger; spore solution, 27° C. 1 week
Protocol: (§3) A sample fungus which had been pre-cultured was diluted with a wetting agent-containing sterilized water according to an ordinary broth dilution method to prepare a spore solution. 1 ml of the spore solution was then mixed with 1 ml of each of chemical solutions having concentrations which vary stepwise. The mixture was then cultured at a temperature of 27° C. in an incubator for 1 week. The culture was then examined for turbidity to see if the proliferation of fungus occurred. The minimum concentration at which no turbidity occurs was defined to be MIC.
(§4) Aspergillus niger IFO 6431 (A. niger) and Candida albicans ATCC10231 (C. albicans) were used as sample microorganisms.

[5] = test system: Candida albicans ATCC10231; test: as above; format: cell-based; details: C. albicans; spore solution, 27° C. 1 week
Protocol: as §3, §4

Erythrocyte = test: Minimum hemolytic activity concentration against erythrocyte; format: cell-based; details: human erythrocyte, 37° C. 1 hour, O.D.540, 50% hemolysis
Protocol: Human blood was collected. The sample blood was then mixed with the equal amount of alsebar solution (glucose: 2.05 g; NaCl: 0.42 g; sodium citrate: 0.8 g; citric acid: 0.55 g; pH: 6.1). The mixture was then stored at a temperature of 4° C. Shortly before used for experiment, the alsebar stored blood was subjected to centrifugal separation. Thus, the supernatant liquid and the leukocyte layer on the erythrocyte were removed. To the erythrocyte was then added PBS in an amount of […] that of the erythrocyte to obtain a 50% erythrocyte. 10 μl of the 50% erythrocyte was then mixed with 990 μl of each of chemicals which had been diluted with PBS in amounts varying stepwise. The erythrocyte was acted upon by the chemical at a temperature of 37° C. for 1 hour. The mixture was then subjected to centrifugal separation. The supernatant liquid was collected for the measurement of the optical density at 540 nm (O.D.540). Separately, the foregoing procedure was followed except that no chemicals were used to prepare a 0% hemolytic control. The foregoing procedure was followed except that Milliq water was used instead of PBS to prepare a 100% hemolytic control. For the minimum hemolytic activity concentration of chemical, the minimum concentration at which the hemolytic concentration is […] was determined.

Bacillus cereus IFO 3001 = test: Minimum bactericidal concentration (MBC) against bacteria; format: cell-based; details: contact 30° C. 30 minutes, culture 37° C. 24 hours
Protocol: (§5) A bacteria solution in the initial stage of logarithmic productive phase which had been adjusted with a nutrient broth according to an ordinary sterilized water dilution method such that the concentration of bacterial suspension reached 10^6 cell/ml was brought into contact with chemical solutions having concentrations which vary stepwise at a temperature of 30° C. for 30 minutes, and then transplanted to a nutrient broth where it was then allowed to stand at a temperature of 37° C. for 24 hours for culture. The nutrient broth was then examined to see if the proliferation of bacteria occurred. Thus, MBC was determined.
(§6) Five kinds of gram-negative bacteria and four kinds of gram-positive bacteria were used as sample bacteria.
(§7) BAMP-6 (Example 12), BAMD-6,8 (Example 13), BAMT-6 (Example 17) and benzalkonium chloride (Comparative Example 1) were determined for MBC value against 5 kinds of gram-negative bacteria and 4 kinds of gram-positive bacteria in the same manner as in Test Example 1.

[6] = test system: Bacillus subtilis IFO 3134; test: as above; format: cell-based; details: contact 30° C. 30 minutes, culture 37° C. 24 hours
Protocol: as §5, §6, §7

[7] = test system: Escherichia coli K12 OUT 8401; test: as above; format: cell-based; details: contact 30° C. 30 minutes, culture 37° C. 24 hours
Protocol: as §5, §6, §7

[8] = test system: Escherichia coli K12 W 3110; test: as above; format: cell-based; details: contact 30° C. 30 minutes, culture 37° C. 24 hours
Protocol: as §5, §6, §7

[9] = test system: Klebsiella pneumoniae ATCC 13883; test: as above; format: cell-based; details: contact 30° C. 30 minutes, culture 37° C. 24 hours
Protocol: as §5, §6, §7

Proteus rettgeri NIT 96 = test: as above; format: cell-based; details: contact 30° C. 30 minutes, culture 37° C. 24 hours
Protocol: as §5, §6, §7

[10] = test system: Pseudomonas aeruginosa ATCC 27583; test: as above; format: cell-based; details: contact 30° C. 30 minutes, culture 37° C. 24 hours
Protocol: as §5, §6, §7

[11] = test system: Staphylococcus aureus IFO 12732; test: as above; format: cell-based; details: contact 30° C. 30 minutes, culture 37° C. 24 hours
Protocol: as §5, §6, §7

[12] = test system: Bacillus substilis ATCC 6633; test: as above; format: cell-based, Bacillus subtilis; details: contact 30° C. 30 minutes, culture 37° C. 24 hours
Protocol: as §5, §6, §7

[13] = test system: Escherichia coli K12 W 3110; test: Minimum development inhibiting concentration (MIC) against bacteria, broth dilution method; format: cell-based; details: 37° C. 24 hours
Protocol: A bacteria solution in stationary state which had been adjusted with a nutrient broth according to an ordinary broth dilution method such that the concentration of bacterial suspension reached 10^6 cell/ml was added to chemical solutions having concentrations which vary stepwise where it was then allowed to stand at a temperature of 37° C. for 24 hours for culture. The bacteria solution was then examined to see if the proliferation of bacteria occurred. Thus, MIC was determined.
Escherichia coli K12 W 3110 was used as a sample bacterium. Compounds obtained in Examples 1 to 9 and benzalkonium chloride prepared in Comparative Example 1 were used as test samples.
The compounds obtained in Examples 10 to 19 and benzalkonium chloride were determined for MIC value against Escherichia coli K12 W 3110 in the same manner as in Test Example 3.

rat = test: Oral toxicity test on rat (LD50); format: in vivo
Protocol: The quaternary ammonium salt of the invention is a compound having an extremely high safety, i.e., LD50 (rat) of not smaller than 2,000 mg/kg in oral toxicity test on rat.
The sample 4BAMP-6C thus obtained was then determined for oral toxicity (LD50: rat). The results were greater than 2,000 mg/kg.

Substance | MIC [1] | MIC [2] | MIC [3] | MIC [4] | MIC [5] | Minimum hemolytic activity concentration Erythrocyte (Erythrocyte) | MBC (Bacillus cereus IFO 3001) | MBC [6] | MBC [7] | MBC [8] | MBC [9] | MBC (Proteus rettgeri NIT 96) | MBC [10] | MBC [11] | MBC [12] | MIC Escherichia coli K12 W 3110 [13] | oral toxicity LD50 (rat)
1,4-bis(N,N-dipentyl-N-methylammoniomethyl)phenylene dichloride [Example 4BAMP-5C] | 16 ppm | 4 ppm | <2 ppm | 16 ppm | 8 ppm | 1,600 ppm | – | – | – | – | – | – | – | – | – | – | –
1,4-bis(N,N-dihexyl-N-methylammoniomethyl)-2,3,5,6-tetramethylphenylene dichloride [BAMD-6] | – | – | – | – | – | 400 ppm | <2 ppm | <2 ppm | <2 ppm | 4 ppm | <2 ppm | <2 ppm | 4 ppm | <2 ppm | <2 ppm | 1 ppm | greater than 2,000 mg/kg
1,4-bis(N,N-dihexyl-N-methylammoniomethyl)phenylene di-p-toluenesulfonate [Example 4BAMP-6S] | – | – | – | – | – | – | 4 ppm | <2 ppm | 4 ppm | 8 ppm | <2 ppm | <2 ppm | 8 ppm | <2 ppm | <2 ppm | 2 ppm | greater than 2,000 mg/kg
